Reference: PMC9301920, “Physiologically Based Toxicokinetic Modeling of Bisphenols in Zebrafish (Danio rerio) Accounting for Variations in Metabolic Rates, Brain Distribution, and Liver Accumulation” (Environmental Science & Technology, 2022)

Test system: female zebrafish
Test: In vivo zebrafish kinetics of BPZ (water exposure, organ concentrations by LC-MS/MS)
Parameters: species or system zebrafish (Danio rerio)
Conditions: 17 μg/L in water, observed
Description: At sampling, adult fish were euthanized by immersion in a sodium bicarbonate-buffered tricaine methanesulfonate solution (MS222: 500 mg/L) and decapitated thereafter. […] Additionally, three whole fish were sampled at timepoints of 6, 12, and 24 h of the exposure phase. Water from the fish tank was sampled at 0, 12, 24, 48, 72, 168, 336, 411, and 480 h after exposure start as well as at 0, 12, 24, and 96 h after the start of depuration. Control fish and tank water were sampled before the start of exposure. All samples were immediately stored at −20 °C until further analysis. […]
1223. In Vivo Zebrafish Kinetics of BPZ
123Adult zebrafish were purchased from a local supplier in Uppsala, Sweden, and acclimatized for
1246 weeks before the start of the study. The zebrafish were kept in 26 °C charcoal filtered tap
173NH 4OH and 4 ml acetonitrile/tetrahydofuran (1:1) mixture. The 4 ml 2% formic acid in
174methanol eluates were evaporated until dry. Remaining residues were then reconstituted in 50
175µl water and methanol 50/50 v/v mixture. Extracts were stored at 4°C until measurement.
176The extracts were measured on a LC (ExionLC, Sciex) coupled with a Turbo V Ion source (ESI)
178Sciex). Separation of compound was done on a phenyl-hexyl column (Kinetex, 100 x 2.1 mm,
1791.7 µm, Phenomenex) set at 45°C using a gradient of 0.2 mM NH 4F and 0.2 mM NH4F in
180acetonitrile. The applied MRM transitions and MS/MS settings are described in Tables S5-S8.
LC column Kinetex Phenyl-hexyl column, 1.7 µm, 2,1 mm X 100
Delay column Isolator column, 2.1 mm X 100 mm (Waters)
Gradient 0.2 mM NH4F 0.2 mM NH4F in
194limit of detection (LOD). The LOD is defined as three times the standard deviation of the blank
195plus the average blank value. The limit of quantification (LOQ) is defined as 3.3 * LOD value
Blank pg/extract Recovery % Repeatability %
Detection and report limits (calculated on based of average sample intake)

Oc1ccc(C2(c3ccc(O)cc3)CCCCC2)cc1 [BPZ, bisphenol Z] gave an AUC (brain) of 2.85 µg/g/day, a BCF (brain) of 10.0 and an AUC (carcass) of 12.5 µg/g/day. For the same compound, the BCF (carcass) was 65.9, the AUC (liver) was 7.07 µg/g/day and the BCF (liver) was 59.2. The AUC (ovaries) was 4.70 µg/g/day, the BCF (ovaries) was 15.8 and the AUC (whole body) was 10.6 µg/g/day. It also gave a BCF (whole body) of 52.9.
